From ChEMBL document CHEMBL3045709, “Increasing resistance against Phytophthora citrophthora in tangelo Nova fruits by modulating polymethoxyflavones levels” (J Agric Food Chem, 2002) come the findings set out here.

pIC50: −log10 of the molar value. Active and inactive are the calls of the source. No cut-off for these calls is given here.

Assay [1] relates to Citrus. The assay can be described thus: Induction of resistance against Phytophthora citrophthora in Citrus (tangelo Nova) fruits assessed as increase of polymethoxyflavones levels at 20 to 250 ppm up to 160 days. Format: functional.
Assay [2] deals with Citrus. Briefly: Induction of resistance against Phytophthora citrophthora in Citrus (tangelo Nova) fruits assessed as increase of polymethoxyflavones levels at 20 to 250 ppm after 7 days. The format is functional.
The subject of assay [3] is Phytophthora citrophthora. The assay can be described thus: Antifungal activity against Phytophthora citrophthora assessed as inhibition of radical growth at 0.1 to 1 g/L up to 200 hr. The format is functional, organism-based.
In assay [4] the test system is Phytophthora citrophthora. The assay can be described thus: Antifungal activity against Phytophthora citrophthora after 100 hr. The format is functional, organism-based.
Assay [5] relates to Phytophthora citrophthora. The assay can be described thus: Antifungal activity against Phytophthora citrophthora in tangelo Nova fruits assessed as inhibition of fungal growth at 100 ppm after 3 to 5 days. Conditions: read-out: GI. The format is functional.
Assay [6] has as its system Phytophthora citrophthora. The assay can be described thus: Antifungal activity against Phytophthora citrophthora assessed as inhibition of radical growth at 0.05 to 0.4 g/L up to 200 hr. Format: functional, organism-based.
For assay [7], the system named is Phytophthora citrophthora. Briefly: Antifungal activity against Phytophthora citrophthora assessed as inhibition of radical growth at 0.2 to 0.6 g/L up to 200 hr. The format is functional, organism-based.
For a further assay, the system named is Penicillium digitatum. The assay can be described thus: Antifungal activity against Penicillium digitatum. Format: functional, organism-based.

In the case of `COc1ccc(-c2oc3c(OC)c(OC)c(OC)c(OC)c3c(=O)c2OC)cc1OC` [3,5,6,7,8,3',4'-HEPTAMETHOXYFLAVONE], the Activity with Citrus [1] was determined as 43%; in the assay with Citrus [2], 29%. For the same compound, the “growth inhibition (GI)” value in assay [3] was “Active”. The same compound showed a pIC50 in assay [4] of 2.98.
`c1ccc(CNc2ncnc3[nH]cnc23)cc1` [6-BENZYLAMINOPURINE]: the inhibition of growth at 100 ppm in assay [5] came to 60%.
Regarding `COc1ccc(-c2cc(=O)c3c(OC)c(OC)c(OC)c(OC)c3o2)cc1OC` [NOBILETIN], the result in the assay on Citrus [1] was Active. Further, in the assay on Citrus [2], the Activity was determined as 20%. Moreover, the “growth inhibition (GI)” value in assay [6] was “Active”. For the same compound, the negative-log IC50 (pIC50) in assay [4] is 3.23.
For `COc1ccc(-c2cc(=O)c3c(OC)c(OC)c(OC)cc3o2)cc1OC` [SINENSETIN], the outcome with Citrus [1] was Active. In addition, the Activity with Citrus [2] is listed as 20%. Besides, the “growth inhibition (GI)” value in assay [7] is “Active”. For the same compound, in assay [4], the pIC50 was 3.04.
Consider `COc1ccc(-c2cc(=O)c3c(OC)c(OC)c(OC)c(OC)c3o2)cc1` [TANGERETIN], for which the outcome with Citrus [1] was Active. Besides, the Activity in the assay with Citrus [2] is 12%. The negative-log IC50 (pIC50) in the assay with Penicillium digitatum is 2.19; in assay [4], 2.76. In assay [3], the “growth inhibition (GI)” value is “Active”.

By pIC50 is commonly meant the negative decadic logarithm of the IC50, by convention in mol/L.
